Reference: ChEMBL document CHEMBL4680122, “Design, synthesis and biological evaluation of new Axl kinase inhibitors containing 1,3,4-oxadiazole acetamide moiety as novel linker” (Eur J Med Chem, 2020)
Active and inactive are the calls of the source. The calls are words filed in the database; no cut-off is given here.

Columns and labels:
MCF7 [1] = experiment: Antiproliferative activity against human MCF7 cells measured after 72 hrs by MTT assay; type: functional, cell-based; conditions: MCF7, 72 h
A549 [2] = experiment: Potency index, ratio of foretinib IC50 to test compound IC50 for antiproliferative activity against human A549 cells; type: functional
PC-3 [3] = experiment: Potency index, ratio of foretinib IC50 to test compound IC50 for antiproliferative activity against human PC-3 cells; type: functional
MCF7 [4] = experiment: Potency index, ratio of foretinib IC50 to test compound IC50 for antiproliferative activity against human MCF7 cells; type: functional
MDA-MB-231 = experiment: Antiproliferative activity against human MDA-MB-231 cells measured after 72 hrs by MTT assay; type: functional, cell-based
[5] = molecular target: Hepatocyte growth factor receptor (Homo sapiens, UniProt P08581); experiment: Inhibition of human N-terminal GST-fused c-MET cytoplasmic domain (956 to 1390 residues) expressed in baculovirus expression system using Srctide as substrate measured after 1 hr by mobility shift assay
Sequence of Hepatocyte growth factor receptor (P08581 whole entry, the tested form may be a part): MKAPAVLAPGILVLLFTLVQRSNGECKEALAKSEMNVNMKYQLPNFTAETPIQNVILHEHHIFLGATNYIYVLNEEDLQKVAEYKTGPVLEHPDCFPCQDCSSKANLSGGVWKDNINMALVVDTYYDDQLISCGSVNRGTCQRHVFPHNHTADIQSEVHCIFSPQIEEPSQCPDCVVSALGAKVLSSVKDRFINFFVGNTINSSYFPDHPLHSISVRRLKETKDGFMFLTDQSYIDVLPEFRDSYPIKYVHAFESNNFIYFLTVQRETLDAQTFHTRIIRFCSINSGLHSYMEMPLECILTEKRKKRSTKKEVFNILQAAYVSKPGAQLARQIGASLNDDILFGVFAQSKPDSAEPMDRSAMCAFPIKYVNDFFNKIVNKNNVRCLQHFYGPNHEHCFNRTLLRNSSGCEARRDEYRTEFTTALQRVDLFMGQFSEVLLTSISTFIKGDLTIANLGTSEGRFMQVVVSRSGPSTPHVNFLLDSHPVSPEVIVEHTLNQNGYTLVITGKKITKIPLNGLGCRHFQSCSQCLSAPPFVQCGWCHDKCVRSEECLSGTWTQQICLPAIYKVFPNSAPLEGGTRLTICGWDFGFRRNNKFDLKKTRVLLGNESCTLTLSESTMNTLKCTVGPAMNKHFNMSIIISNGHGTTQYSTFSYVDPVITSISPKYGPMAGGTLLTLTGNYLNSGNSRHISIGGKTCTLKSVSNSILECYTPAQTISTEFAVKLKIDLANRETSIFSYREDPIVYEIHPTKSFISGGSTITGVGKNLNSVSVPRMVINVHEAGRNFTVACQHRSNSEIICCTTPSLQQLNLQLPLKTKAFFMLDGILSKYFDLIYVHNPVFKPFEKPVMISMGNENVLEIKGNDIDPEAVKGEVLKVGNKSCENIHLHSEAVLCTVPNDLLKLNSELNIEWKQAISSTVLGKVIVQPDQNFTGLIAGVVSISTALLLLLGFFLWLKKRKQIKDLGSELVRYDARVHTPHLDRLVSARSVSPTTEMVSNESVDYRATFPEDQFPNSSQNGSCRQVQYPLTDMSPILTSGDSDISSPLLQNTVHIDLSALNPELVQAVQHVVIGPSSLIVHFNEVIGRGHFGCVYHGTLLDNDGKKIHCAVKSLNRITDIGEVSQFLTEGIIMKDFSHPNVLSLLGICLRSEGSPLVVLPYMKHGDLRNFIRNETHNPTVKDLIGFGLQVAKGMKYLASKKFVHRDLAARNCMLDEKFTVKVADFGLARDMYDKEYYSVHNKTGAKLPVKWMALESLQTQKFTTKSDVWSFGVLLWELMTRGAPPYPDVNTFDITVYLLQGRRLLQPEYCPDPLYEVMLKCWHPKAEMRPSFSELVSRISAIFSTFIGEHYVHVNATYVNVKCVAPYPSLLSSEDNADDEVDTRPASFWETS

[6] = molecular target: Vascular endothelial growth factor receptor 2 (Homo sapiens, UniProt P35968); experiment: Inhibition of human N-terminal GST-fused KDR cytoplasmic domain (790 to 1356 residues) expressed in baculovirus expression system using CSKtide as substrate measured after 1 hr by mobility shift assay
[7] = molecular target: T1, Receptor-type tyrosine-protein kinase FLT3 (Homo sapiens, UniProt P36888); experiment: Inhibition of human N-terminal GST-fused FLT3 cytoplasmic domain (564 to 993 residues) expressed in baculovirus expression system using Srctide as substrate measured after 1 hr by mobility shift assay
T1 sequence (P36888 whole entry): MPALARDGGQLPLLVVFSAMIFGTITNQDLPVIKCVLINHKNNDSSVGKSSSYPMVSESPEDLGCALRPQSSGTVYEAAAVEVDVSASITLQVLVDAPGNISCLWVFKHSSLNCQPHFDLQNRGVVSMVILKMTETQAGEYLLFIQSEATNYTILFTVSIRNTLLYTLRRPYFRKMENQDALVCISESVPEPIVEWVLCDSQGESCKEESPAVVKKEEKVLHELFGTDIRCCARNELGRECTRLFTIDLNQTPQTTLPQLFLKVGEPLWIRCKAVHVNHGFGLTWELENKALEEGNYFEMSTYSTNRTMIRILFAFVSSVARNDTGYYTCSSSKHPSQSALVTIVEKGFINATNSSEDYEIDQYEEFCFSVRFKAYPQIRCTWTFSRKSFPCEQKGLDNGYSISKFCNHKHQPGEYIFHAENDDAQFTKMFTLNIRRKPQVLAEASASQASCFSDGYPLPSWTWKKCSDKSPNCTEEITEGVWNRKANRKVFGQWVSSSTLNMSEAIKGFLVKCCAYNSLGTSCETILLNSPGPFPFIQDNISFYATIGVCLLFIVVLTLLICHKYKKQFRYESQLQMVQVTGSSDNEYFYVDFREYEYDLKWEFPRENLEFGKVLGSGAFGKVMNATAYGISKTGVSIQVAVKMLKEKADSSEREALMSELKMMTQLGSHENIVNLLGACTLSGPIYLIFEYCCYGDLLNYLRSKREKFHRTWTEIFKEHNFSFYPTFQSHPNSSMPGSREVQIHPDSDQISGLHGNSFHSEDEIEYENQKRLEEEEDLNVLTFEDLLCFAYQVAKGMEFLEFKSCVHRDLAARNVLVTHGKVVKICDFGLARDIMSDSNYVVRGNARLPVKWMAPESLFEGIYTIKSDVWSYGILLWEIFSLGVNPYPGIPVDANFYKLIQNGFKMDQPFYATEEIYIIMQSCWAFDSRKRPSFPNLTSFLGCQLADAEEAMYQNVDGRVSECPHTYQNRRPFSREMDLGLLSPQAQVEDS

[8] = molecular target: Platelet-derived growth factor receptor beta (Homo sapiens, UniProt P09619); experiment: Inhibition of human His-tagged PDGFRB cytoplasmic domain expressed in baculovirus expression system using peptide substrate measured after 1 hr by mobility shift assay
Sequence of Platelet-derived growth factor receptor beta (P09619 whole entry, the tested form may be a part): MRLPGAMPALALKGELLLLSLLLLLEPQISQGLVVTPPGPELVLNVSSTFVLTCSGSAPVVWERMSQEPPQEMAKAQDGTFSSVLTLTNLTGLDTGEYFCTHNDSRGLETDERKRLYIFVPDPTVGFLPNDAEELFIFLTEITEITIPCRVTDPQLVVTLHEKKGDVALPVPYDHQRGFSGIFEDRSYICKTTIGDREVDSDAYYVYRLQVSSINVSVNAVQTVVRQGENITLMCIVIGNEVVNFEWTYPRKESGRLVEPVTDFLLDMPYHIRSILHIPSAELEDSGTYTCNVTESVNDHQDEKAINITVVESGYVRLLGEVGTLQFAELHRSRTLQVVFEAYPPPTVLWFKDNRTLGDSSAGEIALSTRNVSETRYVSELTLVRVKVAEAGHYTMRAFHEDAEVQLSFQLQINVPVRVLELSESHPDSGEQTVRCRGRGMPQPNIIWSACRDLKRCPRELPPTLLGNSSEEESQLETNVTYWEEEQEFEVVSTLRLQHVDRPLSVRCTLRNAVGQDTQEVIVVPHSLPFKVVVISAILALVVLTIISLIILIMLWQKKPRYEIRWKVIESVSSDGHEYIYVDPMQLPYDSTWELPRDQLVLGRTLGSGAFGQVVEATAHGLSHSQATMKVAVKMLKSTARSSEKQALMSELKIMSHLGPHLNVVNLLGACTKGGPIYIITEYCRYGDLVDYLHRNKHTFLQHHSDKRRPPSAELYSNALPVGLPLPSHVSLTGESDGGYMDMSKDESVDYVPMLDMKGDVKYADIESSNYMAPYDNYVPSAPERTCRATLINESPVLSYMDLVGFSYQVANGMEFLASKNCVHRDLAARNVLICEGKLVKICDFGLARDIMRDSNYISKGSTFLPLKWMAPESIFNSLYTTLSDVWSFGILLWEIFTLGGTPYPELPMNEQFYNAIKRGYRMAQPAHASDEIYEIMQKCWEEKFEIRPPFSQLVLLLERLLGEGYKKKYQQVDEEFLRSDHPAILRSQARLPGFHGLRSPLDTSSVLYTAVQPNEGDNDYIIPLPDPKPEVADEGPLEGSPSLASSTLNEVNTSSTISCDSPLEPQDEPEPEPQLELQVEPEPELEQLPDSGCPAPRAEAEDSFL

[9] = molecular target: Vascular endothelial growth factor receptor 3 (Homo sapiens) (UniProt P35916); experiment: Inhibition of Flt4 (unknown origin) at 200 nM relative to control
[10] = molecular target: Macrophage-stimulating protein receptor (Homo sapiens) (UniProt Q04912); experiment: Inhibition of Ron (unknown origin) at 200 nM relative to control
Sequence of Macrophage-stimulating protein receptor (Homo sapiens) (Q04912 25-304 limits assumed): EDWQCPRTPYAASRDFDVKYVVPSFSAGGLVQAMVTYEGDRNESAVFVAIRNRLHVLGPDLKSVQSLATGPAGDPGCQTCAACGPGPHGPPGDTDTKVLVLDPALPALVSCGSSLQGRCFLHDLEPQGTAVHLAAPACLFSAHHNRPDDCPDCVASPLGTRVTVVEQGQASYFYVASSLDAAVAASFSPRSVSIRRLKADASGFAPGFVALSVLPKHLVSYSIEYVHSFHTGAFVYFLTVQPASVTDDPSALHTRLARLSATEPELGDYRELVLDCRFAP
Sequence of Macrophage-stimulating protein receptor (Homo sapiens) (Q04912 310-1400 limits assumed): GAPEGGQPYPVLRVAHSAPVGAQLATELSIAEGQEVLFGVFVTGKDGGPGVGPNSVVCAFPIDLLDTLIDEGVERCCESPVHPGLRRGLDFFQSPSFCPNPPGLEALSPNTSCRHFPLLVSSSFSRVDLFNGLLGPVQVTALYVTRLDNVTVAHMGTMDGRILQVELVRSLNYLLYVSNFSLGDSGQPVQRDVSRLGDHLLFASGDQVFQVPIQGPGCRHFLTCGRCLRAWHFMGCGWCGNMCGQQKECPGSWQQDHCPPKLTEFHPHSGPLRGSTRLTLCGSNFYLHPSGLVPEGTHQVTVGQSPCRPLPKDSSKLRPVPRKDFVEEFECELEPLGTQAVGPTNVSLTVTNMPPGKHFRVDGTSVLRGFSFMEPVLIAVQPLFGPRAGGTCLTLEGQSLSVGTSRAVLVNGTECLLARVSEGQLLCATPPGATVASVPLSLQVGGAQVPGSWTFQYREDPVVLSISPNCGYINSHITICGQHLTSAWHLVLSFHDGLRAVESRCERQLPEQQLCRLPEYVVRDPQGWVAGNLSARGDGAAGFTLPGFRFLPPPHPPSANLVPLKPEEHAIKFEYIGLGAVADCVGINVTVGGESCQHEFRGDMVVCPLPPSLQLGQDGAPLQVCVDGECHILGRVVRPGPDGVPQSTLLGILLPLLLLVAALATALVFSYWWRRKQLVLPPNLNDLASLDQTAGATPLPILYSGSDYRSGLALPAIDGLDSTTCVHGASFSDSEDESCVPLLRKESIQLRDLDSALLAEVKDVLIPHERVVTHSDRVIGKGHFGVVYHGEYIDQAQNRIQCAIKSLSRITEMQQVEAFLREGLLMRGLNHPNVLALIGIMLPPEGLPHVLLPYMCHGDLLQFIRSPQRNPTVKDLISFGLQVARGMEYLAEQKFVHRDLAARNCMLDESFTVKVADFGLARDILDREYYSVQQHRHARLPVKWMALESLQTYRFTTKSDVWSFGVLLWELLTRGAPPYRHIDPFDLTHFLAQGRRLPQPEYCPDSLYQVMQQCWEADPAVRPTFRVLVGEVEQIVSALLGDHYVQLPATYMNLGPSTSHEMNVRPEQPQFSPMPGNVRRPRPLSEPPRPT

NCI-H1975 = experiment: Antiproliferative activity against human NCI-H1975 cells measured after 72 hrs by MTT assay; type: functional, cell-based; conditions: NCI-H1975, 72 h
[11] = molecular target: Tyrosine-protein kinase receptor UFO (Homo sapiens) (UniProt P30530); conditions: dose 100.0 nM, time 1.0 hrs
Sequence of Tyrosine-protein kinase receptor UFO (Homo sapiens) (P30530 whole entry): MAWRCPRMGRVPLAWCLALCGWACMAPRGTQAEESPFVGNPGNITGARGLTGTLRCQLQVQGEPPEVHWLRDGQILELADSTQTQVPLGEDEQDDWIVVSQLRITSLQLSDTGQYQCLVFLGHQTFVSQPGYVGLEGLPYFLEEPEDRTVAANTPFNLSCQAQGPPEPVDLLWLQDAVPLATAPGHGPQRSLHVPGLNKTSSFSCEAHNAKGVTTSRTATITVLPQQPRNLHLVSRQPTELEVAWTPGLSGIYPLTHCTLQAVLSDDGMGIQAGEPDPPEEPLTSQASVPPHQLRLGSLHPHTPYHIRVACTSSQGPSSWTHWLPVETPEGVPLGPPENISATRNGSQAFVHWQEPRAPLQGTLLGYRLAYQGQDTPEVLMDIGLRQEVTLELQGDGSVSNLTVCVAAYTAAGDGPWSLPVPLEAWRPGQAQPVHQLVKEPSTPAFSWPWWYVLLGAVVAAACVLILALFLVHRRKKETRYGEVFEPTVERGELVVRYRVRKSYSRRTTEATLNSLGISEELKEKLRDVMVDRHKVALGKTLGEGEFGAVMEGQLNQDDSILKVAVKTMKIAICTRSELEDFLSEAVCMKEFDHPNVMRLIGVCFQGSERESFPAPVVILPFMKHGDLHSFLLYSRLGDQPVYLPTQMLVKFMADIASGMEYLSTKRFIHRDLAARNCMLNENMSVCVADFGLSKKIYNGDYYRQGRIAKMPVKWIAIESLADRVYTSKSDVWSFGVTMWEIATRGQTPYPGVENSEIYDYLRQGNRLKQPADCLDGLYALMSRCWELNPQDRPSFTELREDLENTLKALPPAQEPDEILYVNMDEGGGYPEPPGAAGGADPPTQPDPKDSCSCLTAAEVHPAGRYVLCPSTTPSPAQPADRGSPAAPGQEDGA

A549 [12] = experiment: cells; conditions: Homo sapiens, A549, 72 h
Description: Antiproliferative activity against human A549 cells measured after 72 hrs by MTT assay

PC-3 [13] = experiment: cells; conditions: Homo sapiens, PC-3, 72 h
Description: Antiproliferative activity against human PC-3 cells measured after 72 hrs by MTT assay

H1975/Gefitinib = experiment: cells; conditions: Homo sapiens, 72 h

**Q.** What does the source list for COc1cc2c(Oc3ccc(NC(=O)C4(c5nnc(-c6ccc(F)cc6)o5)CC4)cc3F)ccnc2cc1OCCCN1CCCCC1?
**A.** IC50 (MCF7 [1]): 1010 nM; Ratio IC50 (A549 [2]): 1.9; Ratio IC50 (PC-3 [3]): 1.54; Ratio IC50 (MCF7 [4]): 2; Activity (MDA-MB-231): Active; IC50 [5]: 71 nM; IC50 [6]: 81 nM; IC50 [7]: 103 nM; IC50 [8]: > 200 nM; inhibition [9]: > 80%; inhibition [10]: > 80%; IC50 (NCI-H1975): 99 nM; inhibition [11]: 93.7%; IC50 (A549 [12]): 53 nM; IC50 (PC-3 [13]): 590 nM; IC50 (H1975/Gefitinib): 107 nM
